Test results published in US8785402B2, “Compositions and assays for treatment and diagnosis of helicobacter pylori infection and conditions” (Academia Sinica, priority 2009, dated 2014).
“Also recorded” adds a separate entry of the source.

Key:
[1] = test system: Le^x antigen in H. pylori; test: Anti-Le^x immunoblot of H. pylori lysates after co-culture with AGS cells; assay type: cell-based, Helicobacter pylori; conditions: 100 μM FNJ, DU-152 to DU-157, 12 h, MOI ~400:1
Experimental: (§1) FIGS. 11A-11D collectively show immunoblot analysis of H. pylori-infected Capan 1 and AGS cells with mouse monoclonal anti-Le^x antigen. Capan 1 and AGS cells were infected with different H. pylori strains (from DU-152 to DU-157) that were clinical isolates from six different patients with duodenal ulcer (DU). PBS represents a negative control in the absence of H. pylori. The co-culture was maintained for 12 h at an MOI of ˜400:1. In the parallel experiments, Capan 1 (11a) and AGS cells (11c) were infected under the same conditions. The effect of α-L-fucosidase was evaluated by addition of 100 μM FNJ to the co-cultures of Capan 1 (11b) and AGS cells (11d) with various H. pylori strains. The bacterial cells were collected and lysed for Le^x analysis.
(§2) The secretion of FUCA2 directly results in the extracellular production of L-fucose residues that are then incorporated into H. pylori. It is important to determine if the L-fucose-related biosynthesis is affected at the same time. […] The H. pylori cell lysates were analyzed by SDS-PAGE 12 h after infection and immunoblotted with a Le^x-specific monoclonal antibody. […] In contrast, Le^x-containing glycoproteins were detected in substantial amounts without FNJ treatment (FIGS. 11A and 11C, corresponding to H. pylori-infected Capan 1 and AGS cells, respectively).

[2] = test system: H. pylori-infected Capan 1 cells; test: Transfer of 6-azido-L-fucose from Capan 1 host cells to H. pylori; assay type: cell-based, human; conditions: Capan 1, 100 μM FNJ
Text: (§3) A considerable proportion of H. pylori in the stomach is located at the epithelial mucosa (Schreiber S, et al. Proc. Natl. Acad. Sci. USA 2004, 101:5024-5029) where there are various fucose-containing oligosaccharides including Lewis antigens. To determine if H. pylori acquires L-fucose from host cells, similar to the interaction between B. thetaiotaomicron and small intestine cells (Hooper, et al. Proc. Natl. Acad. Sci. USA 1999, 96:9833-9838), the click chemistry-based fluorogenic labeling method developed by Wong and coworkers (Sawa M, et al. Proc. Natl. Acad. Sci. USA 2006, 103:12371-12376) was applied to detect fucosylated glycoconjugates. […]
(§4) CagA of H. pylori was the first reported bacterial virulence protein translocated by a type IV secretion system (Stein, et al., Proc. Natl. Acad. Sci. USA 2000, 97:1263-1268). Translocated CagA protein can be detected inside host cells soon after H. pylori attachment. The adhesion efficiency of H. pylori can be thus measured by monitoring the level of translocated CagA inside host cells. […] The epithelial cell lysates were analyzed by SDS-PAGE 6-8 h after infection and immunoblotted with a CagA-specific monoclonal antibody. CagA (˜140 kDa) was detected when mock-transfected Capan 1 cells were infected with each different H. pylori strain (FIG. 7B). […]

[3] = test system: H. pylori-infected AGS cells; test: Immunoblot of translocated CagA (adhesion efficiency of H. pylori) in infected AGS cells; assay type: cell-based, human; conditions: 100 μM FNJ
Experimental: (§5) FIG. 8A-8D collectively provide immunoblot analysis of epithelial cells infected with H. pylori using mouse monoclonal anti-CagA. Capan 1 and AGS cells were infected with different H. pylori strains, including CagA^+ and CagA^−, and various clinical isolates from patients with gastritis (GS), duodenal ulcer (DU) and gastric cancer (GC). PBS represents the negative control. The co-culture was maintained for 6-8 h at an MOI of ˜200:1. In the parallel experiments, Capan 1 (a) and AGS cells (c) were infected under the same conditions. The effect of α-L-fucosidase was evaluated by addition of 100 μM FNJ to the co-cultures of Capan 1 (b) and AGS cells (d) with various H. pylori strains.
(§6) FIG. 9 illustrates immunoblot analysis of H. pylori-infected epithelial cells with mouse monoclonal anti-CagA. Capan 1 and AGS cells were infected with different H. pylori strains that were clinical isolates from five different patients with duodenal ulcer (DU). PBS was used as a negative control in the absence of H. pylori. The co-culture was maintained for 6-8 h at an MOI of ˜200:1. […] The effect of α-L-fucosidase was evaluated by addition of 100 μM of the α-L-fucosidase inhibitor, FNJ, to co-cultures of Capan 1 (b) and AGS cells (d) with the indicated H. pylori strains. […]
as §4, with “7B). Nonetheless, CagA was not detected upon Capan 1-FUCA2 K.D. infection with the different H. pylori strains, with the exception of GS (FIG. 7C).” for “7B).”

[4] = test system: Le^x antigen in H. pylori; test: Anti-Le^x immunoblot of H. pylori lysates after co-culture with Capan 1 cells; assay type: cell-based, Helicobacter pylori
Experimental: as §1, §2

[5] = test system: H. pylori-infected AGS cells; test: Transfer of 6-azido-L-fucose from AGS host cells to H. pylori; assay type: cell-based, human; conditions: 100 μM FNJ
Text: as §3, §4

[6] = test system: H. pylori-infected Capan 1 cells; test: Immunoblot of translocated CagA (adhesion efficiency of H. pylori) in infected Capan 1 cells; assay type: cell-based, human; conditions: Capan 1, 100 μM FNJ
Experimental: as §5, §6
as §4, with “7B). Nonetheless, CagA was not detected upon Capan 1-FUCA2 K.D. infection with the different H. pylori strains, with the exception of GS (FIG. 7C).” for “7B).”

H. pylori = test: Adherence of H. pylori to host cells on treatment of infected cells; assay type: cell-based, Helicobacter pylori; conditions: summary statement; host cells not specified
Text: CagA of H. pylori was the first reported bacterial virulence protein translocated by a type IV secretion system (Stein, et al., Proc. Natl. Acad. Sci. USA 2000, 97:1263-1268). Translocated CagA protein can be detected inside host cells soon after H. pylori attachment. The adhesion efficiency of H. pylori can be thus measured by monitoring the level of translocated CagA inside host cells. Four different epithelial cell lines were chosen for the study, namely mock-transfected Capan 1, Capan 1-FUCA2 K.D., Capan 1, and AGS cells. Isogenic vacA (CagA+), cagA (CagA−) mutants, and clinical isolates from patients with gastritis (GS), duodenal ulcer (DU), and gastric cancer (GC) were selected for co-culturing with the four epithelial cell lines. The epithelial cell lysates were analyzed by SDS-PAGE 6-8 h after infection and immunoblotted with a CagA-specific monoclonal antibody. CagA (˜140 kDa) was detected when mock-transfected Capan 1 cells were infected with each different H. pylori strain (FIG. 7B). Nonetheless, CagA was not detected upon Capan 1-FUCA2 K.D. infection with the different H. pylori strains, with the exception of GS (FIG. 7C). […] In contrast, CagA was detected in substantial amounts without FNJ treatment (FIGS. 8A and 8C, corresponding to the results of Capan 1 and AGS cells, respectively).

human FUT3 and FUT6 = test: Anti-Fut 3/6 immunoblot of Capan 1 cells infected with H. pylori; assay type: cell-based; conditions: Capan 1 cells pre-treated with H. pylori and 50 nM FNJ for 4 h
Experimental: Lane A, extract of Capan 1 cells. Lane B, extract of Capan 1 cells pre-treated with H. pylori for 4 h. Lanes C, C′, duplicate independent experiments of extract of Capan 1 cells pre-treated with H. pylori and 50 nM of the α-L-fucosidase inhibitor, FNJ, for 4 h.
L-Fucose is a likely source of utilizable carbon and energy because it is located at the termini of mammalian glycoconjugates. L-Fucose is an abundant component of many host gastric mucosa glycoconjugates (Madrid, et al., J. Histochem. Cytochem 1998, 46:1311-1320) that are constitutively synthesized by host cells. Thus, the “request” from H. pylori to manufacture fucosylated glycans may require the host to activate translation of one or more of its fucosyltransferase proteins.

[7] = DU strains DU-152, DU-153, DU-154, DU-155, DU-157
[8] = DU- or GC-specific H. pylori strains, 6-8 h, MOI ~200:1
[9] = GS-specific H. pylori strain, 6-8 h

CC1NC(CN)C(O)C(O)C1O (stereo not shown) [FNJ, 1-aminomethyl-1-deoxy-fuconojirimycin]
Le^x-expression level in H. pylori [1]: considerably reduce; also recorded: significantly less | transfer of 6-azido-L-fucose from host cells to H. pylori [2]: considerably reduce | CagA present in host cells [3, 7]: no longer present | CagA detected in host cells [3, 8]: consistent with those obtained in AGS cells | level of CagA [3, 9]: not affected | Le^x-expression level in H. pylori ([4]; Capan 1, 100 μM FNJ, DU-152 to DU-157, 12 h, MOI ~400:1): considerably reduce; also recorded: significantly less | level of Le^x-containing glycoproteins in H. pylori ([4]; summary statement, host cells not specified): significantly reduced | transfer of 6-azido-L-fucose from host cells to H. pylori [5]: considerably reduce | CagA present in host cells [6, 7]: no longer present | CagA detected in host cells [6, 8]: no or little CagA was detected | level of CagA [6, 9]: not affected | adherence of H. pylori to host cells (H. pylori): effectively prevented adherence | expression of human FUT3 and FUT6 (human FUT3 and FUT6): decreased substantially
